Measured values reported in patent US20030194750A1, “Methods for treatment of diseases where GSK 3-beta is desired, and methods to identify compounds usefule for that” (priority 2002, published 2003).

What was measured:
COX I = target: T1, COX I (Ovis aries, UniProt P05979); test: Purified cyclooxygenase (COX) inhibition; type: biochemical, ram; conditions: arachidonic acid 100 μM, 2.0 min, 37° C.
T1 construct: The COX was purified from ram seminal vesicles; from tissue; host or cells: ram seminal vesicles
T1 sequence (P05979 25-600): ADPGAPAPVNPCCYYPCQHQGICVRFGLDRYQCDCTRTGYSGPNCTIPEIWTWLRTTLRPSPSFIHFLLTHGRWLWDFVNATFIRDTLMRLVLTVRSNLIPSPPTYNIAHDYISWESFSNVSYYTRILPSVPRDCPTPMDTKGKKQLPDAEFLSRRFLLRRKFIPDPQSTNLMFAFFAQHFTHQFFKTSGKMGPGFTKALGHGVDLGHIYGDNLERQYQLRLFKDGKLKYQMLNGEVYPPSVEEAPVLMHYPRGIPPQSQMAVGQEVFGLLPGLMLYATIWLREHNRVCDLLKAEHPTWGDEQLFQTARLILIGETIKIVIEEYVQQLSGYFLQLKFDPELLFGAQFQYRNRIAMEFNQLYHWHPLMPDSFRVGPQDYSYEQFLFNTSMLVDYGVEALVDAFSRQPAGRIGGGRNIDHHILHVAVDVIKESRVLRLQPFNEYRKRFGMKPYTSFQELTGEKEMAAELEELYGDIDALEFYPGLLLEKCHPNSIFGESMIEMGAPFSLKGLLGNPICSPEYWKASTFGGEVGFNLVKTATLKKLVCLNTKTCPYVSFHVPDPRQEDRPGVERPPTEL
Experimental: COX catalyzes the formation of prostaglandins and thromboxane by the oxidative metabolism of arachidonic acid. The compound of Example 1 of this invention, as well as a positive control, (sulindac sulfide) were evaluated to determine whether they inhibited purified cyclooxygenase Type I (see Table 1 below).
The compounds useful in the practice of this invention were evaluated for inhibitory effects on purified COX. The COX was purified from ram seminal vesicles, as described by Boopathy, R. and Balasubramanian, J., 239:371-377, 1988. COX activity was assayed as described by Evans, A. T., et al., “Actions of Cannabis Constituents on Enzymes Of Arachidonate Metabolism Anti-Inflammatory Potential,” Biochem. Pharmacol., 36:2035-2037, 1987. Briefly, purified COX was incubated with arachidonic acid (100 μM) for 2.0 min at 37° C. in the presence or absence of test compounds. The assay was terminated by the addition of TCA, and COX activity was determined by absorbance at 530 nm.

PKG [1] = test: PKG activity assay on lysates of drug-treated SW480 colon cancer cells (32P phosphorylation of PDE5/GST substrate); type: cell-based, human; conditions: SW480 cells treated 48 hrs; exisulind 200, 400, 600 μM, E4021 0.1, 1, 10 μM; assay with and without added cGMP
Experimental: A compound that inhibits all these types of PDE is desirable, accordingly. Below, we provide examples of such PDE-inhibiting compounds.
SW 480 is known to contain the APC mutation. About 5 million SW480 cells in RPMI 5% serum are added to each of 8 dishes:
2-10 cm dishes - - - 30 μL DMSO vehicle control (without drug),
3-10 cm dishes - - - 200 μM, 400 μM, 600 μM exisulind in DMSO, and
The dishes are incubated for 48 hrs at 37° C. in 5% CO2 incubator.
The liquid media are aspirated from the dishes (the cells will attach themselves to the dishes). The attached cells are washed in each dish with cold PBS, and 200 μL cell lysis buffer (i.e., 50 mM Tris-HCl, 1% NP-40, 150 mM NaCl, 1 mM EDTA, 1 mM Na3VO4, 1 mM NaF, 500 μM IBMX with proteinase inhibitors) is added to each dish. Immediately after the cell lysis buffer is added, the lysed cells are collected by scraping the cells off each dish. The cell lysate from each dish is transferred to a microfuge tube, and the microfuge tubes are incubated at 4° C. for 15 minutes while gently agitating the microfuge tubes to allow the cells to lyse completely. […]
For each control or drug cell lysate sample to be evaluated, the reaction is started by adding phosphorylation buffer containing 10 μCi ^32P-γ-ATP solution (200 μM ATP, 4.5 mM MgCl; 5 mM KH2PO4; 5 mM K2HPO4;) to each mixture. […]

PKG [2] = test: Western blot of PKG protein in SW480 cells; type: cell-based, human; conditions: 48 hours, vs vehicle 0.1% DMSO
Experimental: (§1) SW480 cells treated with exisulind as described previously are harvested from the microfuge tubes by rinsing once with ice-cold PBS. The cells are lysed by modified RIPA buffer for 15 minutes with agitation. The cell lysate is spun down in a cold room. The supernatants are transferred to fresh microcentrifuge tubes immediately after spinning. BioRad DC Protein Assay (Temecula, Calif.) is performed to determine the protein concentrations in samples. The samples are normalized for protein concentration, as described above.
(§2) 50 μg of each sample is loaded to 10% SDS gel. SDS-PAGE is performed, and the proteins then are transferred to a nitrocellulose membrane. The blotted nitrocellulose membrane are blocked in freshly prepared TBST containing 5% nonfat dry milk for one hour at room temperature with constant agitation.
A goat-anti-PKG primary antibody is diluted to the recommended concentration/dilution in fresh TBST/5% nonfat dry milk. The nitrocellulose membrane is placed in the primary antibody solution and incubated one hour at room temperature with agitation. The nitrocellulose membrane is washed three times for ten minutes each with TBST. The nitrocellulose membrane is incubated in a solution containing a secondary POD conjugated rabbit anti-goat antibody for 1 hour at room temperature with agitation. The nitrocellulose membrane is washed three times for ten minutes each time with TBST. […]

[3] = target: T2, GST-cGB-PDE5 fusion protein (Homo sapiens, UniProt O76074); test: cGMP binding assay with GST-cGB-PDE5 fusion protein; conditions: 3H-cGMP 2 μM, 22° C., 1 hour
T2 construct: made in house; host or cells: E. coli BL21 (DE3)
Experimental: 5′-3′, Inc. kits for total RNA followed by oligo (dT) column purification of mRNA are used with HT-29 cells. […] It is then cloned into pGEX-5X-3 glutathione-S-transferase (GST) fusion vector (Pharmacia Biotech) with tac promoter, and EcoRI and XhoI cut sites. The fusion vector is then transfected into E. Coli BL21 (DE3) bacteria (Invitrogen). The transfected BL21 bacteria is grown to log phase, and then IPTG is added as an inducer. The induction is carried at 20° C. for 24 hrs. The bacteria are harvested and lysed. The soluble cell lysate is incubated with GSH conjugated Sepharose 4B (GSH-Sepharose 4B). The GST-cGB-PDE5 fusion protein can bind to the GSH-Sepharose beads, and the other proteins are washed off from beads with excessive cold PBS.
Then, the mixture is transferred to Brandel MB-24 cell harvester with GF/B as the filter membrane followed by 2 washes with 10 mL of cold 5 mM potassium buffer( pH 6.8). The membranes are then cut out and transferred to scintillation vials followed by the addition of 1 mL of H2O and 6 mL of Ready Safe™ liquid scintillation cocktail to each vial. The vials are counted on a Beckman LS 6500 scintillation counter.
The quenching by filter membrane or other debris are also calibrated.

PKG1β = test: Western blot of PKG1β in SW480 cells; type: cell-based, human; conditions: various concentrations, 48 hours
Experimental: (§3) 50 μg protein/lane were analyzed by Western blot analysis using specific anti-PKG1β and anti-GSK3β-phospho-ser9 antibodies.

β-catenin = test: Western blot of β-catenin in SW480 cells; type: cell-based, human
Experimental: as §1, §2
SW480 cells were treated with exisulind or vehicle (0.1% DMSO) for 48 hours. 50 μg supernatant of each cell lysates were loaded to 10% SDS-gel and blotted to nitrocellulose membrane, and the membrane was probed with rabbit-anti-β-catenin and rabbit anti-PKG antibodies.
This observation was made by culturing SW480 cells with either 200, 400 or600 μM exisulind or vehicle (0.1% DMSO). The cells are harvested 48 hours post treatment and processed for immunoblotting. Immuno-reactive protein can be detected by Western blot. […]

GSK3β = test: Western blot of GSK3β-phospho-ser9 in SW480 cells; type: cell-based, human; conditions: various concentrations, 48 hours, vs 0 concentration
Experimental: as §3

PKG [4] = test: PKG activity assay on lysates of drug-treated HCT116 colon cancer cells; type: cell-based, human; conditions: HCT116 cells (β-catenin mutation, no APC mutation), same procedure as SW480
Description: HCT116 is known to contain the β-catenin mutation, but is known not to contain the APC mutation.
The same procedure is used to grow the HCT116 cells as is used in the SW480 procedure described above. In this experiment, only exisulind and controls were used.

T2 sequence (O76074 46-539 limits assumed): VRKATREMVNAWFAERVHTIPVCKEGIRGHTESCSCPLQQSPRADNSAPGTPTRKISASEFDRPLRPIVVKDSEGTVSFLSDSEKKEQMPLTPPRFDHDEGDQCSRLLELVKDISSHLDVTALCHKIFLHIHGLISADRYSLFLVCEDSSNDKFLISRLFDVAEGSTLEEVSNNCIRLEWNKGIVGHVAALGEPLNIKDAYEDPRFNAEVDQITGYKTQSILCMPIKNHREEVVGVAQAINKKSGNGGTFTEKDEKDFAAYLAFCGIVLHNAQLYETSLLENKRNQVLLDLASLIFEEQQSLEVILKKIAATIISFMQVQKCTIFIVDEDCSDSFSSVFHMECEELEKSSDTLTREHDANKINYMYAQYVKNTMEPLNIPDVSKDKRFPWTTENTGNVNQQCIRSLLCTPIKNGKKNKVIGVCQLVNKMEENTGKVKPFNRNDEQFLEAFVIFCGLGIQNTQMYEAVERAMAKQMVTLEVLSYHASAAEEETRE

Row | Compound | inhibition at 100 µM (COX I) [%] | PKG activity relative to control (PKG [1]) | PKG protein level by Western blot (PKG [2]) | competition with cGMP for the cGMP binding sites [3] | PKG1 induction (PKG1β) | reduction of β-catenin expression compared to control (β-catenin; SW480 cells, 200, 400 or 600 μM, harvested 48 hours post treatment) [%] | β-catenin level by Western blot (β-catenin; SW480 cells, 48 hours, vs vehicle 0.1% DMSO) | GSK3β inactivation by Ser9 phosphorylation (GSK3β) | PKG activation relative to controls (PKG [4])
1 | CC1=C(CC(=O)NCc2ccccc2)c2cc(F)ccc2/C1=C\c1ccncc1 [Example 1, (Z)-5-Fluoro-2-Methyl-(4-Pyridinylidene)-3-(N-Benzyl)-Indenylacetamide] | < 25 | – | – | – | – | – | – | – | –
2 | CC1=C(CC(=O)O)c2cc(F)ccc2/C1=C\c1ccc(S(C)(=O)=O)cc1 [exisulind] | – | causes PKG activity to increase in a dose-dependent manner | increase of PKG | None of the PDE5 inhibitors showed any competition with cGMP in binding | PKG1 induction in a dose-dependent manner | 50 | drop of β-catenin | inactivated in vivo by phosphorylation of its Ser9 | PKG activation occurred
